According to paper PMC8540349, “GOBP1 from the Variegated Cutworm Peridroma saucia (Hübner) (Lepidoptera: Noctuidae) Displays High Binding Affinities to the Behavioral Attractant (Z)-3-Hexenyl acetate” (Insects, 2021):
Entries after “also recorded” stand apart in the source; their conditions may differ.

Experiments:
recombinant PsauGOBP1 [1] = assay: Affinity of fluorescent probe 1-NPN to PsauGOBP1 (direct titration); design: species or system Peridroma saucia; settings: direct titration 2–16 µM 1-NPN, excitation 337 nm; single binding site; means of three replicates; read-out: dissociation constant of 1-NPN
Protocol: (§1) Emission fluorescence spectra were recorded on a Hitachi F-4500 at 25 °C, with a 1 cm light path quartz cuvette and 5 nm slits for both excitation and emission. The protein was dissolved in 50 mM Tris-HCl buffer, pH 7.4, and ligands were added as 1 mM methanol solutions. To measure the affinity of the fluorescent ligand N-phenyl-1-naphthylamine (1-NPN) to PsauGOBP1, a […] solution of the protein in 50 mM Tris-HCl, pH 7.4, was titrated with aliquots of 1 mM ligand in methanol to a final concentration of 16 µM. The probe was excited at 337 nm, and emission spectra were recorded between 380 and 450 nm. To analyze the binding affinity of other ligands to PsauGOBP1, a panel of 34 compounds including moth sex pheromones and host plant volatiles were used in the competitive-binding assay. A solution of the protein and 1-NPN, both at the concentration of […], was titrated with 1 mM methanol solutions of each competitor at a concentration of 12 (sex pheromones) or 16 µM (host plant volatiles).
The dissociation constant for 1-NPN and the stoichiometry of binding were obtained by processing the data with GraphPad Prism 6. […]

recombinant PsauGOBP1 [2] = assay: Fluorescence competitive-binding assay with 1-NPN as probe; design: species or system Peridroma saucia; settings: mean ± SE; for IC50: 1-NPN displacement, Tris-HCl pH 7.4, 25 °C, read-out: IC50 (concentration of ligand halving the initial fluorescence value); for IC50 / Fluorescence (%) at Maximum Concentration: three experiments; for Fluorescence (%) at Maximum Concentration: remaining 1-NPN fluorescence; for Kd: calculated from IC50 with KD = [IC50]/1 + [1-NPN]/K1-NPN, read-out: KD (calculated dissociation constant)
Protocol: as §1
The dissociation constant for 1-NPN and the stoichiometry of binding were obtained by processing the data with GraphPad Prism 6. Dissociation constants of the competitors were calculated from the corresponding IC50 values (concentrations of ligands that reduced the initial fluorescence value of 1-NPN by 50%), using the following equation: KD = [IC50]/1 + [1-NPN]/K1-NPN, where [1-NPN] is the free concentration of 1-NPN, and K1-NPN is the dissociation constant of the protein/1-NPN complex.

P. saucia antennae = assay: Electroantennogram (EAG) recording; design: species or system Peridroma saucia; settings: dose 100 µg, two- to three-day-old males and females, versus paraffin oil control, n = 20
Protocol: Individual synthetic nonanal, citral, farnesol, benzaldehyde, (Z)-3-hexenyl acetate, and (Z)-3-hexen-1-ol was diluted with paraffin oil to make each solution of 10 μg/μL. Each solution was added onto a filter paper (0.2 × 1 cm), and the final loading capacity doses of each solution were 100 μg. A 10 μL volume of paraffin oil was used as the control. Two- to three-day-old male and female P. saucia were used to obtain EAG recordings for the six volatiles. As described by Sun et al. with modification, the antennae were cut from the head and used for electro-signal recordings. After a few segments of the tip were cut off, the antenna was glued to the antenna holder (using conductive gel, Spectra 360, Parker Lab, NJ, USA), and the antenna holder was inserted into the EAG probe. The EAG signal was first amplified with a DC/AC preamplifier (Syntech UN-06), and was further processed with Autospike software (Syntech, Hilversum, the Netherlands).
The EAG data were analyzed using GraphPad Prism 6. The level of significance was set at p < 0.05. Unpaired Student’s t-tests were used to compare the EAG responses of male vs. female P. saucia. For comparison of responses to the six volatiles, the EAG data were first subjected to a one-way ANOVA; this was done separately for males and females. If the ANOVA was significant, means were compared with Tukey’s multiple comparison test.

adult P. saucia = assay: Y-tube olfactometer behavioral bioassay; format: in vivo, Peridroma saucia
Protocol: A Y-tube olfactometer was used to assess the behavioral responses of male and female P. saucia to (Z)-3-hexenyl acetate as described by Yan and Wang with modifications. In brief, the system consisted of a central tube (20 cm long, 6 cm diameter) and two lateral arms (35 cm long, 6 cm diameter). (Z)-3-hexenyl acetate was dissolved in paraffin oil to obtain 10 µg/µL solutions. Filter paper (1 × 2 cm) with 10 µL of sample or 10 µL of paraffin oil was placed in a 250 mL flask. During the test, the room temperature was kept at 24 ± 2 °C with 70% ± 5% humidity and 0.6 lux of red light. […] Moths that moved more than half way along one of the lateral arms and remained for at least 5 s were recorded as having made a choice for the odor offered through that arm. After five individuals were tested, the olfactometer was turned and the flasks were switched in order to avoid positional effects. Tested compounds and paraffin oil were renewed every 5–10 min. The olfactometer and the flask were cleaned with water, ethanol, and acetone at the end of each day.
Chi-squared analyses were performed to determine whether the numbers of P. saucia that made a choice differed between the two odor sources (a 50:50 probability was set for the percentage of moths selecting the control and the test sides. The moths that made no choice were not included in the statistical analysis).

[3] = host plant volatiles, maximum concentration 16 (µM)
[4] = sex pheromones, maximum concentration 12 (µM)

| Structure (SMILES) | IC50 (recombinant PsauGOBP1 [2]) | Fluorescence (%) at Maximum Concentration (recombinant PsauGOBP1 [2]; [3]) | further results |
| --- | --- | --- | --- |
| c1ccc(Nc2cccc3ccccc23)cc1 [1-NPN, N-phenyl-1-naphthylamine] | – | – | Kd (recombinant PsauGOBP1 [1]): 1.9 µM |
| CCCCCCCC=O [Octanal] | > 20 µM | 61 ± 6% | – |
| C=C1CCC2CC1C2(C)C (stereo not drawn) [β-pinene] | > 20 µM | 100 ± 2% | – |
| CC/C=C\CCOC(C)=O [(Z)-3-hexenyl acetate] | 8.2 ± 0.2 µM | 19 ± 2% | Kd (recombinant PsauGOBP1 [2]): 4 ± 0.1 µM; EAG response of male and female antennae (P. saucia antennae): strongest responses; also recorded: strongest EAG response; also recorded: strong responses; percentage of females showing chemotaxis to the compound (adult P. saucia; females, 10 µL of 10 µg/µL in paraffin oil versus paraffin oil, Y-tube): 68%; behavioral response (attraction) of both sexes (adult P. saucia; males and females, choice versus paraffin oil, chi-squared test): attractive; also recorded: attracted; also recorded: significant attraction; percentage of males showing chemotaxis to the compound (adult P. saucia; males, 10 µL of 10 µg/µL in paraffin oil versus paraffin oil, Y-tube): 64% |
| CCCC/C=C\CCCCCCOC(C)=O [Z7-12: Ac] | > 20 µM | – | Fluorescence (%) at Maximum Concentration (recombinant PsauGOBP1 [2]; [4]): 74 ± 4% |
| CCCC/C=C\CCCCCCCCCCO [Z11-16: OH] | > 20 µM | – | Fluorescence (%) at Maximum Concentration (recombinant PsauGOBP1 [2]; [4]): 70 ± 5% |
| CC/C=C\CC1C(=O)CCC1CC(=O)OC (stereo not drawn) [Methyl jasmonate] | > 20 µM | 80 ± 5% | – |
| c1ccc2[nH]ccc2c1 [Indole] | > 20 µM | 70 ± 9% | – |
| O=Cc1ccccc1 [Benzaldehyde] | 19.3 ± 1.1 µM | 62 ± 2% | Kd (recombinant PsauGOBP1 [2]): 9.4 ± 0.5 µM; EAG response of male and female antennae (P. saucia antennae): strong responses; also recorded: relatively strong |
| CC(C)=CCCC(C)=CC=O (mixture of isomers) [Citral] | 11.5 ± 1 µM | 40 ± 3% | Kd (recombinant PsauGOBP1 [2]): 5.6 ± 0.4 µM; EAG response of male and female antennae (P. saucia antennae): weak EAG responses and weak |
| CCCCCCCCC=O [Nonanal] | 13.9 ± 0.6 µM | 50 ± 2% | Kd (recombinant PsauGOBP1 [2]): 6.8 ± 0.3 µM; EAG response of male and female antennae (P. saucia antennae): weak EAG responses and weak |
| CCCCCCCCCCCCO [Dodecanol] | > 20 µM | 75 ± 8% | – |
| CCCC/C=C\CCCCCCCCCC=O [Z11-16: Ald] | > 20 µM | – | Fluorescence (%) at Maximum Concentration (recombinant PsauGOBP1 [2]; [4]): 89 ± 1% |
| CCCCCCCCCC=O [Decanal] | > 20 µM | 85 ± 2% | – |
| CC/C=C\C[C@H]1C(=O)CC[C@@H]1CC(=O)O [Jasmonic acid] | > 20 µM | 68 ± 3% | – |
| CC/C=C\CCCCCCCCOC(C)=O [Z9-12: Ac] | > 20 µM | – | Fluorescence (%) at Maximum Concentration (recombinant PsauGOBP1 [2]; [4]): 72 ± 2% |
| C=CC(=C)CCC=C(C)C [β-myrcene] | > 20 µM | 94 ± 1% | – |
| CC(C)=CCC/C(C)=C/CC/C(C)=C/CO [Farnesol] | 13.1 ± 1.2 µM | 47 ± 4% | Kd (recombinant PsauGOBP1 [2]): 6.4 ± 0.6 µM; EAG response of male and female antennae (P. saucia antennae): weak EAG responses and weak |
